In brackets after ≈: the same amount, converted by molar mass. Several values for one entry are separate records, joined by “and”; a condition that tells them apart may be missing. Equal entries are not always repeated. Where two headings read alike, the source gives them in different places. Marks after values point to notes of the source that are not given here.
Columns and labels:
[1] = tested on: vaccinia virus (Copenhagen Strain); experiment: microbe, parasite or virus in culture; format: cell-based; conditions: Orthopoxvirus vaccinia, HFF, read-out: Vaccinia (Copenhagen) EC50
[2] = tested on: cowpox virus (Brighton strain); experiment: microbe, parasite or virus in culture; format: cell-based; conditions: HFF, read-out: Cowpox (Brighton) EC50
[3] = tested on: vaccinia virus (Copenhagen Strain); experiment: microbe, parasite or virus in culture; format: cell-based
[4] = tested on: cowpox virus (Brighton strain); experiment: microbe, parasite or virus in culture; format: cell-based; conditions: HFF, read-out: CV (Brighton) EC50
HFF cells [5] = experiment: cells; format: cell-based; conditions: Homo sapiens, 72 h, read-out: IC50, 50% inhibition of cell proliferation
vaccinia IHD strain = tested on: vaccinia IHD strain; set-up: species or system BALB/c mice; conditions: mouse, in vivo
cowpox Brighton Strain [6] = tested on: cowpox Brighton Strain; set-up: species or system BALB/c mice; conditions: mouse, in vivo; for MDD, mean day of death / Mortality % / Mortality No. dead/total no.: ip
cowpox Brighton Strain [7] = tested on: cowpox Brighton Strain; set-up: species or system BALB/c mice; conditions: mouse, in vivo
vaccinia WR strain = tested on: vaccinia WR strain; set-up: species or system BALB/c mice; conditions: mouse, in vivo
vaccinia (WR strain) = tested on: vaccinia (WR strain); set-up: species or system mice; Mean Lung Virus Titer: unit not given here; conditions: mouse, in vivo
vaccinia (HID strain) = tested on: vaccinia (HID strain); set-up: species or system mice; Mean Lung Virus Titer: unit not given here; conditions: mouse, in vivo
HSV-1 strain F = experiment: microbe, parasite or virus in culture; format: cell-based, herpes simplex virus; conditions: Human alphaherpesvirus 1, HFF, read-out: EC50 HSV-1 (F) TK+
HSV-1 TK− strain DM2.1 = experiment: microbe, parasite or virus in culture; format: cell-based, herpes simplex virus; conditions: Human alphaherpesvirus 1, HFF, read-out: EC50 HSV-1 (DM2.1) TK−
ΔcrmA (TK+) CV strain = experiment: microbe, parasite or virus in culture; format: cell-based; conditions: Cowpox virus, HFF, read-out: EC50 CV (Δcrm lacZ) TK+
[8] = tested on: TK:GFP lacZ (TK−) CV strain; experiment: microbe, parasite or virus in culture; format: cell-based; conditions: Cowpox virus, HFF, read-out: EC50 CV (TK:gpf lacZ)
WR strain of VV = experiment: microbe, parasite or virus in culture; format: cell-based; conditions: Orthopoxvirus vaccinia, HFF, 24 h, read-out: EC50 for inhibiting VV DNA synthesis
HSV-1 strain E377 = tested on: HSV-1 strain E377; set-up: species or system BALB/c mice; conditions: mouse, in vivo
VV strain WR = tested on: VV strain WR; set-up: species or system BALB/c mice; conditions: mouse, in vivo, ip
Epstein-Barr virus = experiment: microbe, parasite or virus in culture; format: cell-based; conditions: human gammaherpesvirus 4, read-out: EC50, inhibition of Epstein-Barr virus replication
human cytomegalovirus = format: cell-based
human herpesvirus 6 = format: cell-based; conditions: betaherpesvirus without TK activity
HFF cells [9] = conditions: human
[10] = mouse, in vivo
Human herpesvirus 8 = conditions: Zhu, et al. 2005; cited from earlier work
in vitro = conditions: human

Cc1cn([C@H]2C[C@H](O)[C@]3(CO)C[C@H]23)c(=O)[nH]c1=O [N-MCT, North-methanocarbathymidine]
EC50 [1]: 0.73 µg/mL (≈ 2.89 µM) | EC50 [2]: 0.31 µg/mL (≈ 1.23 µM) | VV (Copenhagen) EC50 [3]: 0.55 ± 0.13 µg/mL | EC50 ([3]; Orthopoxvirus vaccinia, HFF, read-out: VV (Copenhagen) EC50): 0.6 µg/mL (≈ 2.38 µM) | EC50 [4]: 1.5 ± 1.2 µg/mL (≈ 5.95 µM) | IC50 (HFF cells [5]): 29 ± 5.4 µg/mL (≈ 115 µM) | Mean Day of Death (vaccinia IHD strain): 8.7 days | Mortality Number (vaccinia IHD strain): 0/15 and 3/15 | Animals that survived (vaccinia IHD strain; 5.6 mg/kg): 80% | MDD, mean day of death (vaccinia IHD strain; ip, 5.6 mg/kg): 8.7 days | Mortality % (vaccinia IHD strain; ip, 5.6 mg/kg): 20% | Mortality No. dead/total no. (vaccinia IHD strain; ip, 5.6 mg/kg): 3/15 | Mortality % (vaccinia IHD strain; ip, 16.7 mg/kg): 0% | Mortality No. dead/total no. (vaccinia IHD strain; ip, 16.7 mg/kg): 0/15 | Mortality % (vaccinia IHD strain; ip, 50 mg/kg): 0% | Mortality No. dead/total no. (vaccinia IHD strain; ip, 50 mg/kg): 0/15 | Mean Day of Death (cowpox Brighton Strain [6]): 14.0 days and 7.5 days and 13.3 days | Mortality Number (cowpox Brighton Strain [6]): 6/15 and 2/15 and 3/15 | MDD, mean day of death (cowpox Brighton Strain [6]; 5.6 mg/kg): 14.0 days | Mortality % (cowpox Brighton Strain [6]; 5.6 mg/kg): 40% | Mortality No. dead/total no. (cowpox Brighton Strain [6]; 5.6 mg/kg): 6/15 | MDD, mean day of death (cowpox Brighton Strain [6]; 16.7 mg/kg): 13.3 days | Mortality % (cowpox Brighton Strain [6]; 16.7 mg/kg): 20% | Mortality No. dead/total no. (cowpox Brighton Strain [6]; 16.7 mg/kg): 3/15 | MDD, mean day of death (cowpox Brighton Strain [6]; 50 mg/kg): 7.5 days | Mortality % (cowpox Brighton Strain [6]; 50 mg/kg): 13% | Mortality No. dead/total no. (cowpox Brighton Strain [6]; 50 mg/kg): 2/15 | Number of Survivors (cowpox Brighton Strain [7]): 9/10 and 2/10 and 1/10 | Number of Survivors (vaccinia WR strain): 0/10 | MDD (mean day of death ± SD of mice that died prior to day 21) (vaccinia (WR strain)): 8.3 ± 0.6 days and 11.2 ± 4.7 days | Mean Lung Virus Titer (vaccinia (WR strain)): 7.9 ± 0.2 and 8.2 ± 0.1 and 8.3 ± 0.2 | Survivors/Total (vaccinia (WR strain)): 7/10*** and 4/10* and 1/10 | MDD, mean day of death (vaccinia (HID strain)): >21*** day | Mean Lung Virus Titer (vaccinia (HID strain)): 7.1 ± 0.3 and 8.1 ± 0.1 and 8.3 ± 0.1 | Survivors/Total (vaccinia (HID strain)): 10/10*** | EC50 (HSV-1 strain F): 0.07 ± 0.02 µg/mL (≈ 0.277 µM) | EC50 (HSV-1 TK− strain DM2.1): 6.3 ± 3.9 µg/mL (≈ 25 µM) | EC50 (ΔcrmA (TK+) CV strain): 2 ± 2 µg/mL (≈ 7.93 µM) | EC50 [8]: 28 ± 2.3 µg/mL (≈ 111 µM) | EC50 (WR strain of VV): 1 µg/mL (≈ 3.96 µM) | MDD, mean day of death (HSV-1 strain E377): 20 days | Mortality % (HSV-1 strain E377): 0% and 7% | Mortality No. dead/total no. (HSV-1 strain E377): 0/15 and 1/15 | MDD, mean day of death (VV strain WR; 5.6 mg/kg): 8.2 days | Mortality % (VV strain WR; 5.6 mg/kg): 80% | Mortality No. dead/total no. (VV strain WR; 5.6 mg/kg): 12/15 | MDD, mean day of death (VV strain WR; 16.7 mg/kg): 7.5 days | Mortality % (VV strain WR; 16.7 mg/kg): 13% | Mortality No. dead/total no. (VV strain WR; 16.7 mg/kg): 2/15 | Mortality % (VV strain WR; 50 mg/kg): 0% | Mortality No. dead/total no. (VV strain WR; 50 mg/kg): 0/15 | EC50 (Epstein-Barr virus): 0.45 µg/mL (≈ 1.78 µM) | Activity against human cytomegalovirus (human cytomegalovirus): inactive | Activity against human herpesvirus 6 (human herpesvirus 6): inactive | CC50 (HFF cells [9]): >100 ± 0 µg/mL | Tolerability in mice [10]: well tolerated | Sensitivity of human herpesvirus 8 to the drug (Human herpesvirus 8): sensitive | CC50 (in vitro): > 100 µg/mL

Reference: patent US20090221523A1 (priority 2005, published 2009)
